Patent US20260295053A1, “COMPOUNDS FOR DEGRADATION AND INHIBITION OF KRAS (G12D) PROTEIN” (Shenzhen Ionova Life Science Co., Ltd., priority 2023, published 2026)

Experiments:
[1] = system: AsPC-1 cells; assay: AsPC-1 cell proliferation assay (CellTiter Glo); assay type: cell-based; settings: Homo sapiens, ASPC1, 144 h, 6 days
How it was run: (§1)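 Degradation: 22,000 cells/well grown to ~90% confluency, 24 h compound, fixed/permeabilised, anti-KRAS G12D + β-actin antibodies, near-IR fluorescence, DC50. Proliferation: 3,500 cells/well overnight, 6 d compound, CellTiter Glo luminescence, IC50. Dosing […]–1.5 nM final, 1:3 steps.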

[2] = biological target: T1, KRAS (G12D) (Homo sapiens, UniProt P01116, G12D); assay: KRAS (G12D) cellular degradation assay in AsPC-1 cells; assay type: cell-based; settings: 24 hours, antibody fluorescence (Odyssey CLX), DC50 half-maximal degradation concentration
T1 construct: in-cell western with KRAS G12D antibody after 24 h
T1 sequence (P01116 1-188 isoform P01116-2 G12D): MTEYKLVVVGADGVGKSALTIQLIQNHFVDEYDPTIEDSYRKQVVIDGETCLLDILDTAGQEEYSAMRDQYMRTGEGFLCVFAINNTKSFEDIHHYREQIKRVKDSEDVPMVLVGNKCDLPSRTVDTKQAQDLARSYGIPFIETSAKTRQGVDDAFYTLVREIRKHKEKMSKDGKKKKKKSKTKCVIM
How it was run: as §1

Compound: Cc1ncsc1-c1ccc([C@@H](NC(=O)[C@@H]2C[C@@H](O)CN2C(=O)[C@H](C(C)C)n2cc(-c3ccc(COc4c(-c5c(C)c(F)cc6[nH]ncc56)c(C5CC5)cc5c(N(C)[C@H]6CCNC6)nc(OC[C@H]6CCCO6)nc45)cc3)nn2)[C@H](C)O)cc1 [Example 208, (2S,4R)-1-((2S)-2-(4-(4-(((6-cyclopropyl-7-(6-fluoro-5-methyl-1H-indazol-4-yl)-4-(methyl((S)-pyrrolidin-3-yl)amino)-2-(((R)-tetrahydrofuran-2-yl)methoxy)quinazolin-8-yl)oxy)methyl)phenyl)-1H-1,2,3-triazol-1-yl)-3-methylbutanoyl)-4-hydroxy-N-((1R,2S)-2-hydroxy-1-(4-(4-methylthiazol-5-yl)phenyl)propyl)pyrrolidine-2-carboxamide]
- IC50 [1]: < 10 nM
- DC50 [2]: < 10 nM
